According to publication PMC9181852, “In Vivo and In Vitro Biological Evaluation and Molecular Docking Studies of Compounds Isolated from Micromeria biflora (Buch. Ham. ex D.Don) Benth” (Molecules, 2022):

What was measured:
HepG2 = assay: Anticancer MTT assay, HepG2; assay type: cell-based; conditions: Homo sapiens, 24 h
Protocol: (§1) The MTT assay was used to assess the cytotoxicity of salicylalazine isolated from M. biflora as per the previously documented method. For the MTT assay, Gibco BRL was combined with 100 µg/mL of penicillin sodium salts, 10% FBS (Gibco), and sodium carbonate (2 mg/mL). The prepared medium was used to keep three human cancer cell lines: human hepatoma (HepG2), human A498, and renal NCI-h226 non-small cell lung). Mouse hepatocytes, including HepG2 and HepG-R, were planted in 96-well plates. The cell lines were preserved with salicylalazine (1.5–100 μM), hatched for 24 h, and then they were tracked using the MTT procedure^14. This method was used for all tested cell lines. The IC50 value of salicylalazine in different cell lines was calculated from the concentration-effect curves. The standard drug used in this experiment was paclitaxel.

MDR2780AD = assay: Anticancer MTT assay, MDR2780AD; assay type: cell-based; conditions: 24 h
COX-2 = biological target: T1, COX-2 (Homo sapiens, UniProt P35354); assay: In vitro COX-2 inhibition (screening kit); assay type: biochemical
T1 construct: purchased
T1 sequence (P35354 18-604): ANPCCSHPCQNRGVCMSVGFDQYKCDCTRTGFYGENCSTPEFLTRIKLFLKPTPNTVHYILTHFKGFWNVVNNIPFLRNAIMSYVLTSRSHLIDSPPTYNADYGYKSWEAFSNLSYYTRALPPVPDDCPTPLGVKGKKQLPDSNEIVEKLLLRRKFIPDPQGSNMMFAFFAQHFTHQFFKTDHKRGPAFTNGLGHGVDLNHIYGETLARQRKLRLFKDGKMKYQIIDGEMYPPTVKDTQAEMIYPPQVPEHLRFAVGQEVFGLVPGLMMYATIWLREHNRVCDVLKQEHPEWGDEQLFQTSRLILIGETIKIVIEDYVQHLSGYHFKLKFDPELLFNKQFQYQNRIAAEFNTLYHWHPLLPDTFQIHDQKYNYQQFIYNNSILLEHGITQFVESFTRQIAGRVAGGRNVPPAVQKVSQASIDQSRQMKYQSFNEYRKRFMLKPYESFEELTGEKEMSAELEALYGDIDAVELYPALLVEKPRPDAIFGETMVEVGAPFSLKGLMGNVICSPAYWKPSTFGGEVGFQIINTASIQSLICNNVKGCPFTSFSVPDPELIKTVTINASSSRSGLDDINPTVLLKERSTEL
Protocol: The in vitro inhibition of cyclooxygenases (COX-1 and COX-2) by the isolated compounds was determined using screening kits.

A498 = assay: Anticancer MTT assay, A498; assay type: cell-based; conditions: Homo sapiens, 24 h
Protocol: as §1

NCI-H226 = assay: Anticancer MTT assay, NCI-H226; assay type: cell-based; conditions: Homo sapiens, 24 h
Protocol: as §1

[1] = test system: LCMK-2 monkey kidney cells; assay: Cytotoxicity MTT assay, LCMK-2 monkey kidney cells; assay type: cell-based
Protocol: (§2) Salicylalazine isolated from M. biflora was also screened for in vitro cytotoxicity using mouse hepatocytes and LCMK-2 monkey kidney cells. According to the MTT assay, salicylalazine was incubated for 24 h and the viability of the cell was identified. In this screening test, the cells were kept in RPMI 1640 medium as per the reported method. The medium used in this experiment consisted of streptomycin sulfate, NaHCO3 solution, and penicillin sodium salt, and FBS in proper proportion. The initial seeding of 8.6 × 10^3 mice hepatocytes and 7.1 × 10^3 LCMK-2 cells was indicated in 96 well plates. The cells were preserved with salicylalazine at different concentrations, and vehicle (0.2% DMSO), and hatching was performed for […] by MTT following our previously reported method.

mouse hepatocytes = assay: Cytotoxicity MTT assay, mouse hepatocytes; assay type: cell-based
Protocol: as §2

Open field sedative test = assay type: in vivo, mice (Balb/c); conditions: 30 min after administration
Protocol: (§3) Healthy mice (Balb/c) with weight ranging from 20 to 22 g and ages 9 to 10 weeks were used in this screening model. The grown animals were provided with standard laboratory conditions such as standard food and water ad libitum. The in vivo biological screening test was performed at the Department of Veterinary Medicine, College of Agriculture and Veterinary Medicine, Qassim University Buraydah, Saudi Arabia, as well as Swabi University, KP, Pakistan, according to published procedures.
The sedative potential of salicylalazine isolated from M. biflora was assessed as per the reported procedure. The animals were divided into different groups, as designated above. The apparatuses used in this screening contained an area of white wood with a 150 cm diameter bordered by stainless steel walls and was separated into 19 squares by black lines. Then, the open field apparatus was positioned inside the light and sound-reduced room. The different groups of animals were administered distilled water, diazepam, and salicylalazine at different doses. Thirty minutes after administration, all groups of animals were permitted to move from the center of the design box. […] Statistical calculations were performed by counting the number of lines crossed by every animal.

[2] = Inclined plane muscle relaxation model; assay type: in vivo, mice (Balb/c)
Protocol: as §3
An inclined plane screening procedure was adapted to identify the muscle relaxation effects of salicylalazine isolated from M. biflora according to a reported procedure. The inclined plane used in screening contained two plywood boards, and these boards were connected, where one board was at 60 0 from the base while the other one was aligned from the base. Various groups of animals were distributed into several groups; each group comprised six animals (n = 6). Animals in each group were administered water (10 mL/kg), standard drug (diazepam, 1 mg/kg), and salicylalazine at different doses of 2.5, 5, 10, 15, and 20 mg/kg, i.p. After various time intervals, such as 30, 60, and 90 min post-administration, animals were allowed on the higher part of the inclined plane for 30 s to drop or hang.

[3] = Histamine-induced paw edema; assay type: in vivo, mice
Protocol: as §3
The anti-inflammatory potential of salicylalazine isolated from M. biflora was determined as per our recently published method. The induction of inflammation was completed by administering 0.1 mL histamine (0.5%) to the animal’s sub plantar region. The volume of the paw was recorded 1–5 h after the administration of the inflammatory drug. Then, every group of animals was divided and pretreated orally with salicylalazine (15 and 20 mg/kg) for 1 h before making paw edema. The effect of the drug was related to that of loratadine (standard).

IC50 (HepG2): 20.8 ± 0.38 µM | IC50 (MDR2780AD): 0.85 ± 0.09 µM | IC50 (COX-2): 9.08 ± 0.11 µM | SI (COX-2; SI = IC50 (COX-1)/IC50 (COX-2)): 4.85 | IC50 (A498): 115.5 ± 0.42 µM | IC50 (NCI-H226): 64.98 ± 0.11 µM | melting point: 215 to 218 °C
Structure (SMILES): Oc1ccccc1/C=N/N=C/c1ccccc1O [Salicylalazine, salicylalazine]
In vitro cytotoxicity (MTT) [1]: did not exhibit any considerable cytotoxicity | In vitro cytotoxicity (MTT) (mouse hepatocytes): did not exhibit any considerable cytotoxicity | No of Lines Crossed (Open field sedative test; dose 2.5 mg/kg): 78.54 ± 0.98 | No of Lines Crossed (Open field sedative test; dose 5 mg/kg): 69.98 ± 1.22 | No of Lines Crossed (Open field sedative test; dose 10 mg/kg): 60.90 ± 1.00 | No of Lines Crossed (Open field sedative test; dose 15 mg/kg): 51.09 ± 0.97 | No of Lines Crossed (Open field sedative test; dose 20 mg/kg): 40.98 ± 0.80 | Inclined Plane Test (%) ([2]; dose 2.5 mg/kg i.p., 30 min): 20.11 ± 1.45% | Inclined Plane Test (%) ([2]; dose 2.5 mg/kg i.p., 60 min): 26.23 ± 1.66% | Inclined Plane Test (%) ([2]; dose 2.5 mg/kg i.p., 90 min): 27.45 ± 1.23% | Inclined Plane Test (%) ([2]; dose 5 mg/kg i.p., 30 min): 27.34 ± 1.66% | Inclined Plane Test (%) ([2]; dose 5 mg/kg i.p., 60 min): 33.09 ± 1.60% | Inclined Plane Test (%) ([2]; dose 5 mg/kg i.p., 90 min): 34.09 ± 1.30% | Inclined Plane Test (%) ([2]; dose 10 mg/kg i.p., 30 min): 33.98 ± 1.40% | Inclined Plane Test (%) ([2]; dose 10 mg/kg i.p., 60 min): 38.08 ± 1.55% | Inclined Plane Test (%) ([2]; dose 10 mg/kg i.p., 90 min): 39.43 ± 1.28% | Inclined Plane Test (%) ([2]; dose 15 mg/kg i.p., 30 min): 44.53 ± 1.43% | Inclined Plane Test (%) ([2]; dose 15 mg/kg i.p., 60 min): 50.94 ± 1.50% | Inclined Plane Test (%) ([2]; dose 15 mg/kg i.p., 90 min): 51.52 ± 1.20% | Inclined Plane Test (%) ([2]; dose 20 mg/kg i.p., 30 min): 52.09 ± 1.30% | Inclined Plane Test (%) ([2]; dose 20 mg/kg i.p., 60 min): 59.34 ± 1.45% | Inclined Plane Test (%) ([2]; dose 20 mg/kg i.p., 90 min): 60.88 ± 1.19% | Effect on histamine-induced paw edema ([3]; 15 mg/kg, 1 h): 78.45% | Effect on histamine-induced paw edema ([3]; 15 mg/kg, 2 h): 74.33% | Effect on histamine-induced paw edema ([3]; 15 mg/kg, 3 h): 58.09% | Effect on histamine-induced paw edema ([3]; 20 mg/kg, 1 h): 90.55% | Effect on histamine-induced paw edema ([3]; 20 mg/kg, 2 h): 93.99% | Effect on histamine-induced paw edema ([3]; 20 mg/kg, 3 h): 86.11%
